# Reference: patent US20130029928A1 (priority 2010, published 2013)
# “And” between values parts separate entries of the source, which are not always exact repeats. Identical values can stand only once. Like-named read-outs stand apart in the source and are kept apart here.
# How the values were obtained:
# [1] = test system: pregnenolone X receptor (PXR); conditions: species-specific basis; Ren (2009); cited from earlier work
# [2] = test system: p21^WAF1; assay: p21WAF1 transcription reporter (hCG excretion) in A2780/p21WAF1 cells; format: cell-based, human; conditions: 24 hrs exposure; β-hCG excretion
# [3] = test system: BxPc3; assay: ATP depletion cytotoxicity assay 48 hr; format: cell-based, human
# Description: Following exposure to Test Items, the CellTitre-Glo Luminescent Cell Viability Assay to measure ATP content was performed according to the manufacturer's detailed instructions (Promega Corporation, Technical Bulletin No. 288, and Cell notes, Issue 10, 2004).
# Cells were plated at the optimal plating density for that cell line in 96-well plates and allowed to attach overnight. […] Cells were exposed to these compounds in Roswell Park Memorial Institute (RPMI) medium containing 10% Foetal Calf Serum (FCS) and 2 mM Glutamine at 37° C. and 5% CO2 for 48 hours. There were 3 replicates for each test item concentration.
# Following exposure to Test Items, the CellTitre-Glo Luminescent Cell Viability Assay to measure ATP content will be performed according to the manufacturer's detailed instructions (Promega Corporation, Technical Bulletin No. 288, and Cell notes, Issue 10, 2004).
# [4] = test system: HT1080; assay: ATP depletion cytotoxicity assay 48 hr; format: cell-based; conditions: Homo sapiens, HT-1080, Study CXR0798, read-out: IC50 1
# Description: (§5) The SRB assay was performed according to the method specified by the NIC/NIH. […] Assay replicates were independent in time and up to 4 replicates were performed per cell line.
# [5] = test system: A549; assay: SRB cytotoxicity assay 48 hr; format: cell-based, human; conditions: read-out: IC50 Values After 48 Hrs Exposure
# Description: as §5
# [6] = test system: PC3; assay: SRB cytotoxicity assay 48 hr; format: cell-based, human; conditions: read-out: IC50 Values After 48 Hrs Exposure
# Description: as §5
# [7] = test system: PC3 (prostate) xenograft tumours; assay: PC3 xenograft in nude mice; format: in vivo, nude mouse
# Description: (§1) A parallel experiment was carried out using the prostate tumour cell line PC3.
# (§2) These effects are consistent with a transient effect on the liver associated with mild toxicity and reversible liver enlargement. In rodents, this type of effect is usually due to hepatic PPARα activation associated with peroxisome proliferation.
# [8] = PC3 xenograft in nude mice; format: in vivo, nude mouse; conditions: nude, mouse, plasma, intraperitoneal; PC3 model; 25 mg/kg three times weekly; 24 hrs post last dose; Day 29
# Description: as §1, §2
# [9] = PANC-1 xenograft in female nude mice; format: in vivo, nude mouse; conditions: female, nude, mouse, plasma, 25 mg/kg; PANC-1 model; 24 hrs post last dose; Day 88
# Description: (§3) A further xenograft model was performed using the human pancreatic cell line PANC-1. This tumour is slow growing in vivo. […] For various reasons, animals were lost during the study and the final group sizes were small. […] This experiment is currently being repeated to try to obtain larger group sizes at experimental completion.
# (§4) In-life and terminal blood samples taken from the mice were analysed for CXR1002 levels using a validated analytical method. In-life samples averaged 146 μM and terminal blood samples (24 hours post final dose) averaged 474 μM (FIG. 7). Plasma values were higher than the whole blood values. This may be attributed to the duration of dosing. […] Furthermore, the erythrocyte/plasma partitioning coefficient (which measures the amount of drug bound to red cells compared to plasma binding) may contribute to the observed differences.
# [10] = test system: PANC-1 (pancreas) xenograft tumours; assay: PANC-1 xenograft in female nude mice; format: in vivo, nude mouse
# Description: as §3, §4
# [11] = test system: Canine Hepatocytes; assay: ATP depletion cytotoxicity assay 48 hr; format: cell-based; conditions: Canis lupus familiaris, Hepatocyte, Study CXR0798, read-out: IC50 1
# Description: as §5
# [12] = test system: HT-29; assay: SRB cytotoxicity assay 48 hr; format: cell-based, human; conditions: read-out: IC50 Values After 48 Hrs Exposure
# Description: as §5
# [13] = test system: patients with advanced cancer; assay: Phase I study CXR1002-001: safety and toxicity; format: in vivo, human; conditions: at the doses examined to date
# From the text: These patients then underwent repeat dosing schedule with the same dose of CXR1002. […] Dose limiting toxicity (DLT) will be based on the toxicity assessments over the first 3-week period of the repeat dosing schedule. PK samples (single blood sample) were taken on the following basis: • Every 6 weeks during the repeat dosing phase • If dosing is interrupted or stopped, samples will be taken at intervals according to patient convenience • PK sampling for safety evaluation may take place at any time, as clinically indicated
# In all dose cohorts subsequent to the initial dose cohort, all patients will be treated with weekly administration of study drug from the start of dosing. Dose escalation was performed after all patients at the preceding dose level had completed a 3-week repeat dosing period.
# [14] = test system: XBP1 mRNA; assay: RT-PCR analysis of XBP1 mRNA splicing in Panc-1 and HepG2 cells; format: cell-based, human; conditions: Panc-1 500-740 μM, HepG2 300 μM; 1-4 days
# Description: XBP1-u: unspliced form of XBPI; XBPI-s: spliced form of XBP1.
# 1. Control; 2. 500 μM/1 day; 3. 500 μM/2 days; […]; 5. 500 μM/4 days; […]; 7. 740 μM/2 days.
# Control/1 day; 2. Control/2 days; 3. Control/4 days; 4. Tunicamycin for 24 h; 5. Tunicamycin for 6 h; 6. 300 μM/1 day; 7. 300 μM/2 days; 8. 300 μM/3 days.
compound,measurement,setting,value
O=C(O)C(F)(F)C(F)(F)C(F)(F)C(F)(F)C(F)(F)C(F)(F)C(F)(F)F [CXR1002],activation of PXR,[1],are activated
same,activation of transcription of p21^WAF1,[2],did not activate transcription
same,IC50,"[3]; ATP depletion, 48 hrs, read-out: IC50 1-4 (independent replicates)",350 µM and 400 µM
same,IC50,"[3]; Homo sapiens, BXPC-3, 48 h, ATP depletion, 48 hrs, read-out: IC50 1-4 (independent replicates)",370 µM
same,IC50,"[3]; Homo sapiens, BXPC-3, 48 h, ATP depletion, 48 hrs, read-out: IC50 Mean",373 µM
same,IC50,"[3]; Homo sapiens, BXPC-3, 48 h, Example 7, 48 hour, CXR1002 0-1 mM, U0126 fixed 10 μM where combined, read-out: IC50",381 µM
same,IC50,[4],> 1000 µM
same,IC50,[5],230 ± 21.8 µM
same,IC50,[6],272 ± 40.7 µM
same,effect on tumours,"[7]; 5, 15 and 25 mg/kg i.p.",marked anti-tumour effect
same,increase in plasma ALT,[7]; PC3-tumour bearing mice,up to 1.8 fold
same,Absolute Tumour Volume as a Percentage of Saline Control,"[7]; PC3, 25 mg/kg i.p., Day 25",19.14%
same,effect on body weight,[7]; PC3 model,No marked effects on body weight
same,liver weight,[7]; PC3 model,increase in liver weight
same,Terminal / maximum CXR1002 plasma level,"[7]; PC3 model, 25 mg/kg three times weekly, 24 hrs post last dose, Day 29",281 µM
same,increase in plasma AST,[7]; mice bearing PC3 xenografts,up to 3.5 fold
same,plasma glucose and triglyceride levels,"[7]; tumour-bearing nude mice, PC-3",slight reductions
same,concentration at 24 h,[8],281 µM
same,concentration at 24 h,[9],474 µM
same,tumour growth,"[10]; 25 mg/kg, 3 times per week",substantially delayed tumour growth
same,Absolute Tumour Volume as a Percentage of Saline Control,"[10]; PANC-1, 25 mg/kg 3 times per week, Day 82",50.13%
same,Terminal CXR1002 plasma levels,"[10]; PANC-1 model, 24 hrs post last dose, Day 88",474 ± 153 µM
same,In-life blood CXR1002 level (average),"[10]; PANC-1 model, in-life samples",146 µM
same,IC50,[11],240 µM
same,IC50,[12],342 ± 10.6 µM
same,clinical toxicity,[13],relatively non-toxic
same,XBP-1 mRNA splicing,[14],varies from predominately unspliced to spliced
